Source: the NIST ThermoML archive (doi:10.1016/j.tca.2014.08.016)
± gives the expanded uncertainty stated by the source.

Assay: xn = mol fraction of the nth substance listed
Conditions: Liquid; for mass density: Buoyancy - hydrostatic balance with magnetic suspension - one sinker; for viscosity: Falling or rolling sphere viscometry

C=CCCCCCC [oct-1-ene] + C=CCCCC
Conditions	mass density [kg/m3]	viscosity [mPa·s]
298.15 K, 98 kPa, x1 = 0.2	685.08 ± 2.1	0.317 ± 0.007
298.15 K, 98 kPa, x1 = 0.4823	696.22 ± 2.1	0.36 ± 0.008
298.15 K, 98 kPa, x1 = 0.6923	705.6 ± 2.2	0.411 ± 0.01
298.15 K, 24510 kPa, x1 = 0.2	709.99 ± 2.2	0.395 ± 0.009
298.15 K, 24510 kPa, x1 = 0.4823	720.99 ± 2.2	0.444 ± 0.01
298.15 K, 24510 kPa, x1 = 0.6923	729.5 ± 2.2	0.511 ± 0.012
298.15 K, 49030 kPa, x1 = 0.2	727.77 ± 2.2	0.473 ± 0.011
298.15 K, 49030 kPa, x1 = 0.4823	736.94 ± 2.3	0.537 ± 0.013
298.15 K, 49030 kPa, x1 = 0.6923	745.31 ± 2.3	0.618 ± 0.015
298.15 K, 98060 kPa, x1 = 0.2	754.11 ± 2.3	0.644 ± 0.015
298.15 K, 98060 kPa, x1 = 0.4823	765.67 ± 2.4	0.737 ± 0.017
298.15 K, 98060 kPa, x1 = 0.6923	771.37 ± 2.4	0.859 ± 0.02
298.15 K, 196130 kPa, x1 = 0.2	792.06 ± 2.4	1.053 ± 0.025
298.15 K, 196130 kPa, x1 = 0.4823	801.39 ± 2.5	1.225 ± 0.029
298.15 K, 196130 kPa, x1 = 0.6923	806.92 ± 2.5	1.47 ± 0.035
302.9 K, 98 kPa, x1 = 0.6923	703 ± 2.1	0.396 ± 0.009
303.67 K, 98 kPa, x1 = 0.4823	692.48 ± 2.1	0.347 ± 0.008
305.25 K, 98 kPa, x1 = 0.2	679.54 ± 2.1	0.304 ± 0.007
312.9 K, 98 kPa, x1 = 0.6923	696.34 ± 2.1	0.36 ± 0.008
313.35 K, 98 kPa, x1 = 0.4823	685.54 ± 2.1	0.319 ± 0.008
313.65 K, 98 kPa, x1 = 0.2	672.69 ± 2.1	0.283 ± 0.007
322.39 K, 196130 kPa, x1 = 0.6923	796.19 ± 2.5	1.133 ± 0.027
322.63 K, 98060 kPa, x1 = 0.6923	759.23 ± 2.3	0.688 ± 0.016
322.7 K, 49030 kPa, x1 = 0.6923	730.47 ± 2.2	0.497 ± 0.012
322.74 K, 24510 kPa, x1 = 0.6923	712.73 ± 2.2	0.41 ± 0.01
322.86 K, 98 kPa, x1 = 0.6923	688.08 ± 2.1	0.325 ± 0.008
322.95 K, 196130 kPa, x1 = 0.2	781.57 ± 2.4	0.842 ± 0.02
323.14 K, 98060 kPa, x1 = 0.2	743.21 ± 2.3	0.525 ± 0.012
323.23 K, 24510 kPa, x1 = 0.2	692.21 ± 2.1	0.323 ± 0.008
323.24 K, 49030 kPa, x1 = 0.2	714.09 ± 2.2	0.388 ± 0.009
323.28 K, 98 kPa, x1 = 0.2	664.43 ± 2	0.256 ± 0.006
323.53 K, 196130 kPa, x1 = 0.4823	791.05 ± 2.4	0.962 ± 0.023
323.71 K, 98060 kPa, x1 = 0.4823	753.36 ± 2.3	0.589 ± 0.014
323.72 K, 49030 kPa, x1 = 0.4823	723.85 ± 2.2	0.434 ± 0.01
323.73 K, 24510 kPa, x1 = 0.4823	705.99 ± 2.2	0.358 ± 0.008
323.86 K, 98 kPa, x1 = 0.4823	678.22 ± 2.1	0.285 ± 0.007
354.41 K, 196130 kPa, x1 = 0.2	767.99 ± 2.4	0.675 ± 0.016
354.53 K, 196130 kPa, x1 = 0.4823	778.99 ± 2.4	0.757 ± 0.018
354.58 K, 98060 kPa, x1 = 0.4823	737.84 ± 2.3	0.478 ± 0.011
354.59 K, 49030 kPa, x1 = 0.4823	705.39 ± 2.2	0.354 ± 0.008
354.61 K, 24510 kPa, x1 = 0.4823	683.97 ± 2.1	0.291 ± 0.007
354.84 K, 98060 kPa, x1 = 0.2	727.23 ± 2.2	0.428 ± 0.01
355.02 K, 24510 kPa, x1 = 0.2	671.58 ± 2.1	0.259 ± 0.006
355.04 K, 49030 kPa, x1 = 0.2	694.07 ± 2.1	0.317 ± 0.007
355.16 K, 98060 kPa, x1 = 0.6923	741.82 ± 2.3	0.544 ± 0.013
355.27 K, 49030 kPa, x1 = 0.6923	713.02 ± 2.2	0.398 ± 0.009
355.35 K, 196130 kPa, x1 = 0.6923	782.46 ± 2.4	0.876 ± 0.021
355.44 K, 24510 kPa, x1 = 0.6923	691.53 ± 2.1	0.327 ± 0.008
390.42 K, 196130 kPa, x1 = 0.4823	763 ± 2.4	0.614 ± 0.014
390.6 K, 196130 kPa, x1 = 0.6923	764.29 ± 2.4	0.684 ± 0.016
390.61 K, 98060 kPa, x1 = 0.4823	718.3 ± 2.2	0.392 ± 0.009
390.66 K, 24510 kPa, x1 = 0.6923	668.32 ± 2	0.258 ± 0.006
390.68 K, 98060 kPa, x1 = 0.6923	722.16 ± 2.2	0.433 ± 0.01
390.73 K, 24510 kPa, x1 = 0.4823	661.95 ± 2	0.233 ± 0.006
390.76 K, 49030 kPa, x1 = 0.4823	683.17 ± 2.1	0.286 ± 0.007
390.89 K, 49030 kPa, x1 = 0.6923	690.6 ± 2.1	0.319 ± 0.008
395.05 K, 196130 kPa, x1 = 0.2	750.63 ± 2.3	0.535 ± 0.013
395.31 K, 98060 kPa, x1 = 0.2	706.62 ± 2.2	0.345 ± 0.008
395.33 K, 49030 kPa, x1 = 0.2	668.64 ± 2	0.253 ± 0.006
395.52 K, 24510 kPa, x1 = 0.2	641.62 ± 2	0.205 ± 0.005
432.98 K, 196130 kPa, x1 = 0.2	733.67 ± 2.2	0.451 ± 0.011
433.17 K, 196130 kPa, x1 = 0.6923	744.1 ± 2.3	0.549 ± 0.013
433.2 K, 98060 kPa, x1 = 0.6923	698.66 ± 2.1	0.349 ± 0.008
433.33 K, 49030 kPa, x1 = 0.6923	664.02 ± 2	0.255 ± 0.006
433.38 K, 24510 kPa, x1 = 0.6923	641.38 ± 2	0.204 ± 0.005
433.51 K, 98060 kPa, x1 = 0.2	682.68 ± 2.1	0.289 ± 0.007
433.58 K, 49030 kPa, x1 = 0.2	642.37 ± 2	0.213 ± 0.005
433.62 K, 24510 kPa, x1 = 0.2	614.08 ± 1.9	0.169 ± 0.004
435.46 K, 196130 kPa, x1 = 0.4823	741.63 ± 2.3	0.489 ± 0.012
435.49 K, 24510 kPa, x1 = 0.4823	631.36 ± 1.9	0.184 ± 0.004
435.61 K, 98060 kPa, x1 = 0.4823	693.82 ± 2.1	0.318 ± 0.008
435.7 K, 49030 kPa, x1 = 0.4823	656.28 ± 2	0.232 ± 0.005
467.82 K, 196130 kPa, x1 = 0.4823	725.29 ± 2.2	0.447 ± 0.011
467.87 K, 196130 kPa, x1 = 0.2	715.63 ± 2.2	0.403 ± 0.009
467.95 K, 49030 kPa, x1 = 0.4823	636.15 ± 1.9	0.207 ± 0.005
467.96 K, 24510 kPa, x1 = 0.4823	610.74 ± 1.9	0.162 ± 0.004
468.04 K, 98060 kPa, x1 = 0.2	661.09 ± 2	0.262 ± 0.006
468.06 K, 98060 kPa, x1 = 0.4823	675.8 ± 2.1	0.285 ± 0.007
468.07 K, 49030 kPa, x1 = 0.2	620.58 ± 1.9	0.19 ± 0.005
468.18 K, 24510 kPa, x1 = 0.2	589.18 ± 1.8	0.148 ± 0.004
469.83 K, 98060 kPa, x1 = 0.6923	677.9 ± 2.1	0.311 ± 0.007
469.84 K, 196130 kPa, x1 = 0.6923	725.11 ± 2.2	0.482 ± 0.011
470.05 K, 49030 kPa, x1 = 0.6923	641.64 ± 2	0.224 ± 0.005
470.16 K, 24510 kPa, x1 = 0.6923	618.99 ± 1.9	0.176 ± 0.004
